In paper PMC8803738, “Impact of the mouse model and molar amount of injected ligand on the tissue distribution profile of PSMA radioligands” (European Journal of Nuclear Medicine and Molecular Imaging, 2021):
Like-named read-outs stand apart in the source and are kept apart here.

Legend:
[1] = system: PC-3 PIP/flu tumor-bearing mice; assay: Biodistribution in PC-3 PIP/flu tumor-bearing mice; assay type: in vivo, mouse; conditions: for AUCTu(0→48 h)-to-AUCKi(0→48 h) ratio: PC-3 PIP model (female mice); for AUCTu(0→48 h)-to-AUCKi(0→48 h) ratio / AUC0→48h, Kidneys / AUC0→48h, PC-3 PIP tumor: average ± SE, non-decay-corrected
Procedure: (§1) Male BALB/c nude mice were subcutaneously inoculated on the right shoulder with LNCaP tumor cells (5 × 10^6 cells in PBS mixed with Matrigel (20 mg/mL, BD Biosciences) at a ratio of 3 to 1 (v/v) to a total volume of 200 μL per mouse). Biodistribution and SPECT/CT imaging studies with both tumor xenograft models were performed when the tumors reached a volume of 100–300 mm^3.
(§2) [^177Lu]Lu-Ibu-DAB-PSMA (5 MBq, 100 µL) and [^177Lu]Lu-PSMA-617 (5 MBq, 100 µL) were diluted in saline containing 0.05% bovine serum albumin (BSA) to prevent adherence of the radioligands to the syringe. The radioligands were intravenously injected at a ligand amount of 0.05 nmol or 1.0 nmol per mouse. The number of mice per setting was commonly n = 3 and, in case of inconclusive results, additional mice up to a total of n = 6 were included. The mice were sacrificed at 4 h, 24 h, or 48 h post injection (p.i.) and selected tissues and organs were collected, weighed, and counted in a γ-counter (Supplementary Material). The data sets were analyzed for significance using a one-way ANOVA with Sidak’s multiple comparison post-test using the GraphPad Prism software (version 8). A p value of < 0.05 was considered statistically significant. Tumor-to-kidney and tumor-to-blood ratios were calculated for all investigated timepoints after injection of each radioligand.
Time-activity curves over the first 48 h after injection of the radioligands were determined for the PC-3 PIP tumor, the LNCaP tumor, and the kidneys of the corresponding xenograft model based on non-decay-corrected time-dependent biodistribution data obtained at 4 h, 24 h, and 48 h p.i. This allowed calculating the areas under the curve (AUC0→48 h) using the GraphPad Prism software (version 8) (Supplementary Material). The tumor-to-kidney AUC0→48 h ratios were calculated for both xenograft models.
3. Biodistribution studies
Purpose: The impact of the tumor mouse model and the injected ligand amount on the biodistribution of [177Lu]Lu-Ibu-DAB-PSMA and [177Lu]Lu-PSMA-617 was investigated.
Methods: The biodistribution studies were conducted with either PC-3 PIP/flu or LNCaP tumor-bearing mice injected with either 0.05 nmol or 1.0 nmol of radioligand per mouse, whereas the applied activity was kept constant for each setting. The results were decay-corrected and the values indicated as average ± SD obtained from each gr oup of mice (n = 3−6) and listed as percentage of injected activity per gra m tissue [% IA/g].
Results: The results are listed below (Table S1–S4) and described and discussed in the main article.
Table S1 Decay -corrected biodistribution data of [177Lu]Lu-Ibu-DAB-PSMA in PC-3 PIP/flu tumor-bearing mice injected with either 0. 05 nmol or 1.0 nmol per mouse. The values are indicated as average ± SD obtained from each group of mice (n = 3−6) and listed as percentage of injected activity per gram […]
Dissection time 4 h p.i. 24 h p.i. 48 h p.i. […]
a Data obtained with 1.0 nmol [177Lu]Lu-Ibu-DAB-PSMA were reproduced from Deberle et al. […]
radioligands in order to be able to judge the changes in activity uptake in the tumor and kidney s as a consequence of the tumor model and the injected amount of ligand, respectively.
Methods: T he time-activity curves over the first 48 h after injection were determined for the PC-3 PIP tumor, the LNCaP tumor as well as for the kidneys of each tumor mouse model based on non-decay - corrected time-dependent biodistribution data. For these calculations, the radioligand uptake in the tumors and the kidney s at t = 0 h p.i. was set to 0% IA/g.

[2] = system: LNCaP tumor cells
Procedure: (§3) The cells were cultured in RPMI-1640 cell culture medium supplemented with 10% fetal calf serum, L-glutamine, and antibiotics. Puromycin (2 μg/mL) was used to maintain PSMA expression as previously reported [24]. […] The cells were cultured under standard cell culture conditions in RPMI-1640 medium supplemented with 10% fetal calf serum, L-glutamine, antibiotics, and pyruvate (1 mM).
(§4) In brief, PC-3 PIP and LNCaP tumor cells were seeded in 12-well plates (3 × 10^5 cells and 1 × 10^6 cells in 2 mL medium/well, respectively) and incubated overnight. Both PSMA radioligands were applied at variable molar concentrations (0.75–500 nM) but at a constant activity concentration of 37.5 kBq/mL. The tumor cells were incubated for 4 h followed by washing steps and detachment of the cells for counting in a γ-counter (Perkin Elmer, Wallac Wizard 1480). The studies were performed in three independent experiments of six replicates. Statistical analysis was performed using a two-way ANOVA with Tukey’s and Sidak’s multiple comparison post-test in Graph Pad Prism (version 8) for different concentrations of the same radioligand and for the two radioligands at the same concentration, respectively. A p value of < 0.05 was considered statistically significant.
(§5) Both tumor cell types were kept in a humidified atmosphere at 37 °C and 5% CO2. Routine cell culture
(§6) was performed twice a week using PBS/EDTA (2 mM) and trypsin for cell detachment.
(§7) internalization of the radioligands into PC-3 PIP and LNCaP tumor cells.
(§8) Methods: Uptake and internalization studies were performed with PC-3 PIP and LNCaP tumor cells
(§9) using variable concentrations of the respective ligand but constant activity concentrations. PC-3 PIP
(§10) and LNCaP cells were seeded in 12-well plates and incubated at 37 °C and 5% CO2 overnight.
(§11) Experiments with LNCaP cells were performed with poly -L-lysine-coated well plates to ensure better
(§12) cell adherence. The radioligand solution was diluted using saline containing 0.05% bovine serum
albumin (BSA) to avoid adherence to the vial. A defined volume of 25 µL (corresponding to 37.5 kBq)
of this solution was added to the cell monolayers after the addition of 975 µL cell culture medium
without supplements. The final molar concentrations in each well ranged from 0.75 nM to 500 nM.
After incubation of the cells for 4 h, several washing steps were performed using PBS for determination

[3] = system: PC-3 PIP tumor cells
Procedure: as §3, §4, §5, §6, §7, §8, §9, §10, §11, §12
albumin (BSA) to avoid adherence to the vial. A defined volume of 25 µL (corresponding to 37.5 kBq) […]

[4] = system: PC-3 PIP/flu or LNCaP tumor-bearing mice; assay: Biodistribution, comparison or ranges over both PC-3 PIP and LNCaP tumor mouse models; assay type: in vivo
Procedure: as §1, §2

[5] = PC-3 PIP model, 4 h p.i., 0.05 nmol
[6] = PC-3 PIP model, 24 h p.i., 0.05 nmol
[7] = PC-3 PIP model, 48 h p.i., 0.05 nmol

CC(C)Cc1ccc(C(C)C(=O)NC(CCN)C(=O)NCCCCC(NC(=O)CN2CCN(CC(=O)O)CCN(CC(=O)O)CCN(CC(=O)O)CC2)C(=O)NCC2CCC(C(=O)NC(Cc3ccc4ccccc4c3)C(=O)NCCCCC(NC(=O)NC(CCC(=O)O)C(=O)O)C(=O)O)CC2)cc1 (centres unmarked) [[^177Lu]Lu-Ibu-DAB-PSMA, metal not drawn]
PC-3 PIP tumor uptake, low vs high ligand amount ([1]; 0.05 nmol vs 1.0 nmol, 24 h and 48 h p.i.): 1.5–1.6 fold | AUCTu(0→48 h)-to-AUCKi(0→48 h) ratio ([1]; 0.05 nmol): 3.2 ± 0.5 | AUCTu(0→48 h)-to-AUCKi(0→48 h) ratio ([1]; 1.0 nmol): 5.6 ± 0.7 | AUC0→48h, Kidneys ([1]; PC-3 PIP model, 0.05 nmol): 945 ± 97 % IA/g*h | AUC0→48h, PC-3 PIP tumor ([1]; PC-3 PIP model, 0.05 nmol): 3027 ± 206 % IA/g*h | Increase of tumor-to-kidney AUC0→48 h ratio for high vs low molar amount of injected ligand ([1]; PC-3 PIP model, 1.0 nmol vs 0.05 nmol): 1.8 fold | AUC0→48h, Kidneys ([1]; PC-3 PIP model, 1.0 nmol): 388 ± 23 % IA/g*h | AUC0→48h, PC-3 PIP tumor ([1]; PC-3 PIP model, 1.0 nmol): 2166 ± 153 % IA/g*h | Tissue distribution, Blood [1, 5]: 1.3 ± 0.3 % IA/g | Tissue distribution, Bone [1, 5]: 0.29 ± 0.06 % IA/g | Tissue distribution, Heart [1, 5]: 0.54 ± 0.12 % IA/g | Tissue distribution, Intestines [1, 5]: 0.29 ± 0.05 % IA/g | Tissue distribution, Kidneys [1, 5]: 69 ± 10 % IA/g | Tissue distribution, Liver [1, 5]: 1.1 ± 0.1 % IA/g | Tissue distribution, Lung [1, 5]: 1.3 ± 0.3 % IA/g | Tissue distribution, Muscle [1, 5]: 0.22 ± 0.06 % IA/g | Tissue distribution, PC-3 PIP tumor [1, 5]: 81 ± 4 % IA/g | Tissue distribution, PC-3 flu tumor [1, 5]: 0.67 ± 0.10 % IA/g | Tissue distribution, Salivary glands [1, 5]: 0.69 ± 0.18 % IA/g | Tissue distribution, Spleen [1, 5]: 1.9 ± 0.4 % IA/g | Tissue distribution, Stomach [1, 5]: 0.33 ± 0.09 % IA/g | Tumor-to-blood ratio [1, 5]: 65 ± 20 | Tumor-to-kidney ratio [1, 5]: 1.2 ± 0.2 | Tumor-to-liver ratio [1, 5]: 74 ± 8 | Tissue distribution, Blood [1, 6]: 0.23 ± 0.03 % IA/g | Tissue distribution, Bone [1, 6]: 0.13 ± 0.04 % IA/g | Tissue distribution, Heart [1, 6]: 0.15 ± 0.02 % IA/g | Tissue distribution, Intestines [1, 6]: 0.11 ± 0.03 % IA/g | Tissue distribution, Kidneys [1, 6]: 5.5 ± 1.0 % IA/g | Tissue distribution, Liver [1, 6]: 0.54 ± 0.13 % IA/g | Tissue distribution, Lung [1, 6]: 0.27 ± 0.04 % IA/g | Tissue distribution, Muscle [1, 6]: < 0.10 % IA/g | Tissue distribution, PC-3 PIP tumor [1, 6]: 78 ± 14 % IA/g | Tissue distribution, PC-3 flu tumor [1, 6]: 0.31 ± 0.05 % IA/g | Tissue distribution, Salivary glands [1, 6]: 0.21 ± 0.02 % IA/g | Tissue distribution, Spleen [1, 6]: 0.42 ± 0.09 % IA/g | Tissue distribution, Stomach [1, 6]: 0.11 ± 0.02 % IA/g | Tumor-to-blood ratio [1, 6]: 341 ± 48 | Tumor-to-kidney ratio [1, 6]: 14 ± 2 | Tumor-to-liver ratio [1, 6]: 149 ± 34 | Tissue distribution, Blood [1, 7]: 0.13 ± 0.03 % IA/g | Tissue distribution, Bone [1, 7]: < 0.10 % IA/g | Tissue distribution, Heart [1, 7]: < 0.10 % IA/g | Tissue distribution, Intestines [1, 7]: < 0.10 % IA/g | Tissue distribution, Kidneys [1, 7]: 2.3 ± 0.4 % IA/g | Tissue distribution, Liver [1, 7]: 0.28 ± 0.03 % IA/g | Tissue distribution, Lung [1, 7]: 0.18 ± 0.04 % IA/g | Tissue distribution, Muscle [1, 7]: < 0.10 % IA/g | Tissue distribution, PC-3 PIP tumor [1, 7]: 58 ± 9 % IA/g | Tissue distribution, PC-3 flu tumor [1, 7]: 0.17 ± 0.01 % IA/g | Tissue distribution, Salivary glands [1, 7]: 0.11 ± 0.02 % IA/g | Tissue distribution, Spleen [1, 7]: 0.25 ± 0.05 % IA/g | Tissue distribution, Stomach [1, 7]: 0.12 ± 0.08 % IA/g | Tumor-to-blood ratio [1, 7]: 445 ± 51 | Tumor-to-kidney ratio [1, 7]: 26 ± 2 | Tumor-to-liver ratio [1, 7]: 205 ± 10 | Absolute amount of internalized radioligand ([2]; 0.00075 µM): 14–21 % of total added activity | Internalized fraction ([2]; 4 h): > 60 % of total uptake | Cell uptake ([2]; 4 h, 0.00075 µM): ~ 34% | Cell uptake ([2]; 4 h, 0.0075 µM): ~ 16% | Cell uptake ([2]; 4 h, 0.025 µM): ~ 6% | Cell uptake ([2]; 4 h, 0.5 µM): < 1% | Absolute amount of internalized radioligand ([3]; 0.00075 µM): 14–21 % of total added activity | Internalized fraction ([3]; 4 h): 23–28 % of total uptake | Cell uptake ([3]; 4 h, 0.5 µM): ≤ 2% | Tumor accumulation in PC-3 PIP vs LNCaP tumor xenografts ([4]; 0.05 nmol): approximately fourfold | Tumor uptake in PC-3 PIP vs LNCaP tumor xenografts ([4]; 1.0 nmol): 6 fold | Kidney retention, low vs high amount of injected ligand ([4]; 4 h p.i., 0.05 nmol vs 1.0 nmol): about fourfold | Kidney retention ([4]; 4 h p.i., high amount of injected ligand (1.0 nmol), range over both mouse models (PC-3 PIP data reproduced from earlier papers)): 16–19 % IA/g | Kidney retention ([4]; 4 h p.i., low amount of injected ligand (0.05 nmol), range over both mouse models): 58–69 % IA/g | Renal retention of activity ([4]; 24 h p.i., irrespective of the injected ligand amount, range over both mouse models): 5.5–6.8 % IA/g
